Measurements as given in ChEMBL document CHEMBL1201862, “PubChem BioAssay data set” (2004).
Activity calls are given as the source filed them.

What was measured:
[1] = Luminescence Cell-Based/Microorganism Confirmation at Dose of Inhibitors of Trypanosoma cruzi Infection. [Related pubchem assays: 1885, 1968 ]; assay type: functional
[2] = system: HEK293; assay: cells; assay type: functional, cell-based; details: Homo sapiens;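 further: HEK-293-T cells carrying an NF-kB luciferase reporter; cells exposed to compound overnight before the viability read; potency for loss of cell viability meaning cytotoxicity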
[3] = biological target: Nucleotide-binding oligomerization domain-containing protein 2 (Homo sapiens, UniProt Q9HC29); assay: NOD2 signaling inhibitors, cell-based, luminescence, uHTS, HEK293 (AID 1566); assay type: functional
[4] = system: Streptococcus sp. 'group A'; assay: growth inhibition of control SK(-) GAS strain, dose response, counter-screen for streptokinase expression inhibitor project, luminescence, kanamycin, BacTiterGlo, confirmation (AID 1900); assay type: functional, organism-based
[5] = biological target: T1, Microphthalmia-associated transcription factor (Homo sapiens, UniProt O75030); assay: TRPM1 promoter luciferase signal decrease, dose response, MITF inhibitor project, cell-based, SK-MEL-5, cherry-picked, set 3 (AID 493073); assay type: functional
T1 sequence (O75030 whole entry): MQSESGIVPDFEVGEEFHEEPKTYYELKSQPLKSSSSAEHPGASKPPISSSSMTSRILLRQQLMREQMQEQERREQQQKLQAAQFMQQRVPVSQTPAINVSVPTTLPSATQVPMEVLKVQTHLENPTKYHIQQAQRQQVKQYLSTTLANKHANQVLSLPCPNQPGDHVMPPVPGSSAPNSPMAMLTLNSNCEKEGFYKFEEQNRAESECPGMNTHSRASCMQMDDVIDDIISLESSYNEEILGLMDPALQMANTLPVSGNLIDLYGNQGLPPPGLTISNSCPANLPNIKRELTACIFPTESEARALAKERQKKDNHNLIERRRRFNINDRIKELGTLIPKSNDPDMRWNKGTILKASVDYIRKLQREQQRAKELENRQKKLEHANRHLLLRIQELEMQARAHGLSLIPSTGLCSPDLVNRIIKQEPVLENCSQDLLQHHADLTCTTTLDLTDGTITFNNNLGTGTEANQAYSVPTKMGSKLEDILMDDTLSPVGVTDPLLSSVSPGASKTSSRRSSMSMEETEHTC

[6] = inhibitors of Trypanosoma cruzi host-cell infection, confirmation, beta-gal luminescence, NIH3T3 host cells (AID 2630); assay type: functional, cell-based; details: Mus musculus
[7] = biological target: T2, Hexokinase HKDC1 (Homo sapiens, UniProt Q2TB90); assay: HKDC1 hexokinase activators, dose response, biochemical, W721R variant (AID 504730); assay type: functional
T2 sequence (Q2TB90 whole entry): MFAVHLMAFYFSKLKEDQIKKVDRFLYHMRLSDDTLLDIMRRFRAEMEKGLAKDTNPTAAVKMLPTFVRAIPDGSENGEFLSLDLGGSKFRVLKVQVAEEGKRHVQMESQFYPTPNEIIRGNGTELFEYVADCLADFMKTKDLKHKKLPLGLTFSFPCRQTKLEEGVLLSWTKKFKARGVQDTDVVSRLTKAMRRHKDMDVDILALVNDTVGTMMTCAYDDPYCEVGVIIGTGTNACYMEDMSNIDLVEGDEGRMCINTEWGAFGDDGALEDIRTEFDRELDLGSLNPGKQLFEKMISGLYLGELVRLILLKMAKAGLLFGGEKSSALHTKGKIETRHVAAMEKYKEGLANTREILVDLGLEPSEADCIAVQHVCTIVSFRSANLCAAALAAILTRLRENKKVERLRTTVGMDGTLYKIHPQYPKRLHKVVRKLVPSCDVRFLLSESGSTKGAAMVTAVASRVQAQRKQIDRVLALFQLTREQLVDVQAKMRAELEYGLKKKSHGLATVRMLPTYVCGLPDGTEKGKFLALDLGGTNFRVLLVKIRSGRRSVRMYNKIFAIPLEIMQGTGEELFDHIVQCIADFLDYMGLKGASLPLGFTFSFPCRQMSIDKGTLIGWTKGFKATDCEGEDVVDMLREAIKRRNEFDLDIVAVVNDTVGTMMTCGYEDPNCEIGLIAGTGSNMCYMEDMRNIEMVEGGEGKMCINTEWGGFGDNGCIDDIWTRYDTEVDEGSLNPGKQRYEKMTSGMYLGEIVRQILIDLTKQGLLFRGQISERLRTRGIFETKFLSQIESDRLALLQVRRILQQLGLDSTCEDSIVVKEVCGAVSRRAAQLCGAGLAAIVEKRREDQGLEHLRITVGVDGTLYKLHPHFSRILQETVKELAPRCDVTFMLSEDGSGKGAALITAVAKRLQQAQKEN

[8] = HEK293T cytotoxicity, dose response, cytotoxicity control for miR-122 modulator project, cell-based, activator set, cherry-pick (AID 720690); assay type: functional;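 further: HEK293T human cells scored for general mammalian cytotoxicity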
[9] = biological target: Fatty acid synthase (Homo sapiens, UniProt P49327); assay: FAS thioesterase domain inhibitors, dose response, biochemical, kinetic fluorescence intensity (AID 624326); assay type: functional;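 further: rate of fluorescence rise from hydrolysis of a fluorogenic O-methyl fluorescein ester substrate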
[10] = biological target: Sphingosine 1-phosphate receptor 1 (Homo sapiens, UniProt P21453); assay type: functional;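 further: Tango beta-arrestin reporter U2OS cells stimulated with S1P near its EC80; inhibitor potency meaning antagonism of receptor activation by the natural agonist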
[11] = biological target: Beta-galactosidase (Escherichia coli, UniProt Q8VNN2); assay: beta-galactosidase enzyme inhibitors and activators, dose response, artefact control for CCR6 antagonist project, biochemical, E. coli enzyme, set 3 (AID 504712); assay type: functional
[12] = HeLa cell cytotoxicity, dose response, cytotoxicity control for MgcRacGAP inhibitor project (AID 624300); assay type: functional
[13] = biological target: T3, Heat shock factor protein 1 (Mus musculus, UniProt P38532); assay: inhibition of MG132-induced HSE-luciferase signal, confirmation, cell-based, NIH3T3, luminescence, dose retest (AID 2382); assay type: functional;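 further: NIH3T3 fibroblasts with HSF1-driven luciferase reporter stressed by proteasome inhibitor MG132; luminescence from HSF1-driven luciferase expression after 8 hours of MG132 stress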
T3 sequence (P38532 whole entry): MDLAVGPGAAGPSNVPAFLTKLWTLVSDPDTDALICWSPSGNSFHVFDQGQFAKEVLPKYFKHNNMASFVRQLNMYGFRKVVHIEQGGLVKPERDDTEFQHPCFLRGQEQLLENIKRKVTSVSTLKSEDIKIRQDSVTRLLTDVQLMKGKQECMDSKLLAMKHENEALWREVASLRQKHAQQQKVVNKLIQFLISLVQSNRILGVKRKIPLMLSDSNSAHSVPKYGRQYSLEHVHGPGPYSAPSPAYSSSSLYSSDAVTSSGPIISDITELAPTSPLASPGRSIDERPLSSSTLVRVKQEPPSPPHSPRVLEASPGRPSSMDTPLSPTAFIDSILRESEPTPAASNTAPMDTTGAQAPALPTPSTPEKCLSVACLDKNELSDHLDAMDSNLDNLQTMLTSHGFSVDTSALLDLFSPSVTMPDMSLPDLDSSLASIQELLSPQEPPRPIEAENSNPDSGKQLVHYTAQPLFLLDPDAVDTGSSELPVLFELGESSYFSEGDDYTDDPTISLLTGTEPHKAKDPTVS

Sequence of Fatty acid synthase (P49327 whole entry, the tested form may be a part): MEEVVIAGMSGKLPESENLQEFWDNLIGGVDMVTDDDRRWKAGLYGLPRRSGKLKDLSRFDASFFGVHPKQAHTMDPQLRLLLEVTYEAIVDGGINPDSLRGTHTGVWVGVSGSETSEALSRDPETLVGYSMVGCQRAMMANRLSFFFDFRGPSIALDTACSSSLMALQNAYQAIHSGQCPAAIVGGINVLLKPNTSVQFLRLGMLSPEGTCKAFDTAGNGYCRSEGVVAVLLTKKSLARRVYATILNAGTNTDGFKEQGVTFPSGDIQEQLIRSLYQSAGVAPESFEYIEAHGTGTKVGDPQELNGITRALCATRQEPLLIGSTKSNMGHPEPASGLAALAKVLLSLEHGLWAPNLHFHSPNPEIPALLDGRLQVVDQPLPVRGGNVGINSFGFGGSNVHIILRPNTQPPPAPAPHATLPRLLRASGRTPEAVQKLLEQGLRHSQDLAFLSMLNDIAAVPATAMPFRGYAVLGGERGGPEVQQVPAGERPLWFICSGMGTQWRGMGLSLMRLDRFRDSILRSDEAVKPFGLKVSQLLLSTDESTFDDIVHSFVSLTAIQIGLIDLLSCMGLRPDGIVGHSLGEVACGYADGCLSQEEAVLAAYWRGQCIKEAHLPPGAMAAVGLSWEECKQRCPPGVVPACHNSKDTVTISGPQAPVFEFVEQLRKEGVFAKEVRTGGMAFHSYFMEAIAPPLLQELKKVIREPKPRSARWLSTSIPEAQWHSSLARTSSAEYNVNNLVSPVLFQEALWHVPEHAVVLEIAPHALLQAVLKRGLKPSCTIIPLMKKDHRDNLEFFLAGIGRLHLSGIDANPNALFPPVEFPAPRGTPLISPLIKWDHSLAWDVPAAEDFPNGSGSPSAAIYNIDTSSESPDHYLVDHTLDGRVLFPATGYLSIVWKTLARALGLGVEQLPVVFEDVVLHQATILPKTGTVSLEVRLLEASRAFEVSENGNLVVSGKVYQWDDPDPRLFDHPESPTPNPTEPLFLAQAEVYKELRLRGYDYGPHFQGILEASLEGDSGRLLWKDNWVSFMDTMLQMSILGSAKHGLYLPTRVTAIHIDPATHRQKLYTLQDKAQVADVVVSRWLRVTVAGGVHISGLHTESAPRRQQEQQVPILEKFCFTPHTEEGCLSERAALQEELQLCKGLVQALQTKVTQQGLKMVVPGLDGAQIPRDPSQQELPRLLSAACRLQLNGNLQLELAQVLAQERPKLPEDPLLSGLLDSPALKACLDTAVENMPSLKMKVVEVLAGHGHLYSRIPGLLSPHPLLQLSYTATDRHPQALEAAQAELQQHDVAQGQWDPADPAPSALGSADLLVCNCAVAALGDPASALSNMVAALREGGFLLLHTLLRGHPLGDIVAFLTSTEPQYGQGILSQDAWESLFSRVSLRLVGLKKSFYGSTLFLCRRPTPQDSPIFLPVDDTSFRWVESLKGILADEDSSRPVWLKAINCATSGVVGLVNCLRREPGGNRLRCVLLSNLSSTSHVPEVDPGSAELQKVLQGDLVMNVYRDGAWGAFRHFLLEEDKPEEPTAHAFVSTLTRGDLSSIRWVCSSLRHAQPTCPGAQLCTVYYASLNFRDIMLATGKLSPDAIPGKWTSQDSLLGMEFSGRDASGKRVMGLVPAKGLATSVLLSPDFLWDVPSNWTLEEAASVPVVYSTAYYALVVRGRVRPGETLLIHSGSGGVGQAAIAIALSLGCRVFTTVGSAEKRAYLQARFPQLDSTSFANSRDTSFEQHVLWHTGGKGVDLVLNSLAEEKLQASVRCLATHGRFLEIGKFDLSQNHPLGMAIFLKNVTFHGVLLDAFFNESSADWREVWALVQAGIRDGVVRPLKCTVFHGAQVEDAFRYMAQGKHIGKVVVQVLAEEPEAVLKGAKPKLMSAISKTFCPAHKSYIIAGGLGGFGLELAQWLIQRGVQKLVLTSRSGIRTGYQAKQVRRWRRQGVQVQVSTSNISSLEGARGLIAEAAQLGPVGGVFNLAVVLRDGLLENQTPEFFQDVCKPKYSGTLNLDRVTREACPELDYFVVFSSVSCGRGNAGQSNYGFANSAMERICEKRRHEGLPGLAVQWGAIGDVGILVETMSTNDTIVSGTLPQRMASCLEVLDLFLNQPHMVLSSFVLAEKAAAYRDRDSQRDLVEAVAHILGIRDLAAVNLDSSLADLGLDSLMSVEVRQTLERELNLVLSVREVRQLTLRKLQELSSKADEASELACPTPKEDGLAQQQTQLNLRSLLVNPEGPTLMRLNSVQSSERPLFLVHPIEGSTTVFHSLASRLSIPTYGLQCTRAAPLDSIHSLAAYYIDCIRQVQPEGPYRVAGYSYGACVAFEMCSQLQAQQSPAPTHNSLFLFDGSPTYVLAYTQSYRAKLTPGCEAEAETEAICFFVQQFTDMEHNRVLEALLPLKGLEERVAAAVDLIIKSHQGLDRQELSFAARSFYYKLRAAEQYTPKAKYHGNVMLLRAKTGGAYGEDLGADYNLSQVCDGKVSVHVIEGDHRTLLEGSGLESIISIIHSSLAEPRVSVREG
Sequence of Nucleotide-binding oligomerization domain-containing protein 2 (Q9HC29 whole entry, the tested form may be a part): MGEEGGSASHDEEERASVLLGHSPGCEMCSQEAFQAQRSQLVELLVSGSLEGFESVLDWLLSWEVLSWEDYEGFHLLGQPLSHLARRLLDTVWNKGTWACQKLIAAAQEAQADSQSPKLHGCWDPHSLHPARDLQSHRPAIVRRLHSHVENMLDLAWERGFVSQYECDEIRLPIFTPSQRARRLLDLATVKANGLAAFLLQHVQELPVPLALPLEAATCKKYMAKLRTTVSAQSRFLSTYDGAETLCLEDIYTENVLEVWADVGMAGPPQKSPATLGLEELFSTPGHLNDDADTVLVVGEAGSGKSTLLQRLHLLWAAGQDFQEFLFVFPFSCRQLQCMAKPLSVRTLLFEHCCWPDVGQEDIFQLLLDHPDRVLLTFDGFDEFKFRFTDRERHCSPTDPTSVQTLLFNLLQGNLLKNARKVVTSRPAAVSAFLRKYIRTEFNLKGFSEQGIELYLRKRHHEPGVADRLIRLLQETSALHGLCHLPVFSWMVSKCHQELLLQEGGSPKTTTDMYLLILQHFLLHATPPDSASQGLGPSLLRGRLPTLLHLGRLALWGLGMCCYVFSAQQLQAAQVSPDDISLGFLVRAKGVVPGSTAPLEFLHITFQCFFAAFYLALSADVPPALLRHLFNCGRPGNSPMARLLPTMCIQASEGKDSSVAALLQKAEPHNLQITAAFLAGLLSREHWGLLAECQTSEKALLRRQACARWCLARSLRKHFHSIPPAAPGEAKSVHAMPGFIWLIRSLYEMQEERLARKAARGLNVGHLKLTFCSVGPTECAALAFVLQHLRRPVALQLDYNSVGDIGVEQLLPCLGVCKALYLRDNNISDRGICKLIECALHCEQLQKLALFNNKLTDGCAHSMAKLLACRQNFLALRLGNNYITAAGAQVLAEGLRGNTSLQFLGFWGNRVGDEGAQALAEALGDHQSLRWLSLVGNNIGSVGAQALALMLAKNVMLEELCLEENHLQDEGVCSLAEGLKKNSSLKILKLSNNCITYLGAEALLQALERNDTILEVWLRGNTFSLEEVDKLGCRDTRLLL
Sequence of Sphingosine 1-phosphate receptor 1 (P21453 whole entry): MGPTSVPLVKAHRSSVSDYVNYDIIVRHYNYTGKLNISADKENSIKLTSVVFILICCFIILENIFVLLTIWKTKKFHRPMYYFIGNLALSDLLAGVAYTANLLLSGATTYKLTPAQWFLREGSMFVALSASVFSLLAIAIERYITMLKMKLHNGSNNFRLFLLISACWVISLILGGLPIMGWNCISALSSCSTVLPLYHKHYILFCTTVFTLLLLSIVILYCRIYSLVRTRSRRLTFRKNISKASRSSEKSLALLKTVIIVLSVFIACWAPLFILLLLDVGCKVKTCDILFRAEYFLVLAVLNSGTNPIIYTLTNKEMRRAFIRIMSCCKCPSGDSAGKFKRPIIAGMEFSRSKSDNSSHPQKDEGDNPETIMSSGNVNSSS
Sequence of Beta-galactosidase (Q8VNN2 whole entry): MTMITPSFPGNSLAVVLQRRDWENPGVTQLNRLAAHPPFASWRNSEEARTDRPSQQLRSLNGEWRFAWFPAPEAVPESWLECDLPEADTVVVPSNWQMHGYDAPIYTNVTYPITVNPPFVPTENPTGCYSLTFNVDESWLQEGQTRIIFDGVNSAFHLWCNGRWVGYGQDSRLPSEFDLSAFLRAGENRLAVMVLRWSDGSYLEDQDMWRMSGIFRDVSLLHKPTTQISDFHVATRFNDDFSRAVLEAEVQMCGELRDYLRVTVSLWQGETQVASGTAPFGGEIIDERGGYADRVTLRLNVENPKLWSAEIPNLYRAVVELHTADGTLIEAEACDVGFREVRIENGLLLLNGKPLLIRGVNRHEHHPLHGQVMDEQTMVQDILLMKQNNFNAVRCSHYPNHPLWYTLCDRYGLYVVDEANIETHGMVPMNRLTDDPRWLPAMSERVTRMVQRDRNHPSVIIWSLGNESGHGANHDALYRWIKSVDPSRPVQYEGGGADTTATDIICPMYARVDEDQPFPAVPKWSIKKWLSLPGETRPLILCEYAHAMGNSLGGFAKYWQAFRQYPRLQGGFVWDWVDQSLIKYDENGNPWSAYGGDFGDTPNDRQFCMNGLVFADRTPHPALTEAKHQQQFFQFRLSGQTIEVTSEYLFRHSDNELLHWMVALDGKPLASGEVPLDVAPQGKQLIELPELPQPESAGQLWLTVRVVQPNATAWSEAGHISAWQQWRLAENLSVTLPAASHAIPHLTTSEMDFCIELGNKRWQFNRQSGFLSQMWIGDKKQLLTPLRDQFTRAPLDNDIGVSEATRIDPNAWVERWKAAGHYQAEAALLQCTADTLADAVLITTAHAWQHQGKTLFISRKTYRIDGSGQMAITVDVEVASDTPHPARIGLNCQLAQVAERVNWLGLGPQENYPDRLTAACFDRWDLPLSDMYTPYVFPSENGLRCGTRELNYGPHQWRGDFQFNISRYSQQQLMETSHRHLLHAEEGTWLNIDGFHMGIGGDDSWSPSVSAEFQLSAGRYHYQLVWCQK

Question: Which EC50 [1] does the source give for `O=C(CNc1cccc2ccccc12)N/N=C/c1ccc([N+](=O)[O-])o1` here?
Answer: 0.022 µM (active)

Question: And the IC50 [2]?
Answer: 14.3 µM (active)

Question: What about the EC50 [3] of the same compound?
Answer: 5.55 µM (active)

Question: What about the EC50 [4] of the same compound?
Answer: 0.901 µM (active)

Question: And the AC50 [5]?
Answer: 5.05 µM (active)

Question: And the EC50 [6]?
Answer: 0.022 µM (active)

Question: Which EC50 [7] does the source give for `O=C1NC(=S)N/C1=C/c1cc2c(cc1[N+](=O)[O-])OCO2` here?
Answer: > 80 µM (inactive)

Question: Which AC50 [8] does the source give for `O=C(CC(O)(C(F)(F)F)C(F)(F)F)Nc1ccc(Cl)c(Cl)c1` here?
Answer: 2.27 µM (active)

Question: For `Cc1ccc(NC(=O)C2=C(c3ccccc3)S(=O)(=O)CCS2(=O)=O)cc1`, which IC50 [9] is on record?
Answer: 1.61 µM (active)

Question: And the IC50 [10]?
Answer: 68.8 µM (not active)

Question: What about the IC50 [11] of the same compound?
Answer: > 66.6 µM (inactive)

Question: What about the CC50 [12] of the same compound?
Answer: 100 µM (active)

Question: And the EC50 [13]?
Answer: 6.3 µM (active)
